The text below walks through data of US12115229B2, “Nanosystems for controlled transport of active molecules for diagnostic, prognostic and therapeutic purposes” (FIDIA FARMACEUTICI S.P.A., priority 2015, dated 2024).

For the assay, the system named is tumour cell line 4T1 (breast cancer). Nature of the assay: In vitro MTT cytotoxicity assay, 4T1. It counts as cell-based. The protocol:
The cytotoxic activity of Doxo-Hyalusphere was tested on tumour cell lines 4T1 (breast cancer) and A549 (lung cancer), using the in vitro MTT assay.
For the purpose of the test, cell line 4T1 was cultured in RPMI medium (Gibco) and A549 in DMEM (Gibco). 10% FBS (foetal bovine serum, Gibco), 1% L-glutamine (Gibco) and 1% penicillin/streptomycin (Gibco) were added to both culture media at the temperature of 37° C. in the presence of 5% CO2.
The cells were plated in 24-well microplates (Nunc) (50000 cells per well in 500 μl of medium). After 12 hours, 100 μl of culture medium containing the various conditions studied was added to each well: • 1) Nanoparticles with PEG (PEG-NP); • 2) Nanoparticles with rHyal_Sk (Hyal-NP); • 3) Doxorubicin in solution (Free DOX); • 4) Doxorubicin bonded to nanoparticles (DOX-NP) • 5) Doxo-HyaluSpheres (DOX-Hyal-NP),
The nanoparticle concentrations were established at 40000 per cell, and the plates were incubated for 24 and 96 hours. […]
Metabolic activity was evaluated after 30 minutes by reading the optical density (OD) with an ELISA Reader (Bio-Rad) spectrophotometer at the wavelength of 570 nm. […] The fraction of viable cells was determined on the basis of the ratio between the mean optical density of the treated samples and that of the untreated control sample.

Take `COc1cccc2c1C(=O)c1c(O)c3c(c(O)c1C2=O)C[C@@](O)(C(=O)CO)C[C@@H]3O[C@H]1C[C@H](N)[C@H](O)[C@H](C)O1` [Free-DOX, Doxorubicin]: the “tumour cell survival compared with the doxorubicin nanosystems” value (free doxorubicin 0.75 μg/mL) is recorded as “Quantitatively identical results”. Besides, the cell death result (free drug equivalent to 3 nM (1.6 ng/mL), 24 and 96 hours) was “did not lead to cell death”.
